Assay results taken from paper PMC10531095, “Photonics of Some Monomethine Cyanine Dyes in Solutions and in Complexes with Biomolecules” (International Journal of Molecular Sciences, 2023).

Columns and labels:
dsDNA = experiment: Spectral fluorescent titration of the dyes with dsDNA in PBS; type: binding, chick; settings: for αb, proportion of bound dye: cbiomol = 5 × 10^−5 mol L^−1
From the text: (§1) Complexation of MCD 1–4 with DNA (double-stranded and single-stranded) and with human serum albumin (HSA) was studied by spectral fluorescent methods in a wide range of biopolymer concentrations (cdsDNA = 0–1.5 × 10^−4 mol L^−1; cssDNA = 0–1.4 × 10^−4 mol L^−1; cHSA = 0–1.4 × 10^−4 mol L^−1 in PBS buffer). The absorption, fluorescence, and fluorescence excitation spectra of MCD 1 and 3 in the presence of dsDNA are shown in Figure 3 and Figure 4, respectively.
(§2) The complication of chemical equilibrium, and the variety of interactions between MCD and biopolymer (dye aggregation/deaggregation, the possibility of forming complexes of several types with DNA/HSA) makes it problematic to determine the exact values of the complexation constants of the dyes with DNA. The values of the effective equilibrium constants of the complexation reaction of MCD with biopolymers (Keff, L mol^−1, see Table 7) were estimated from spectral fluorescent data. In this case, we had to assume a simple equilibrium MCD (monomer, free) ⇄ MCD (monomer, bound). For these purposes, we used the Benesi–Hildebrand [59], Hill, and Scatchard formalisms (See Supplementary Materials, Equations (S9)–(S13)). For dsDNA, fitting according to the modified Scatchard equation was carried out assuming one dye molecule per one DNA turn (K1Sc at nSc = const = 10 b.p.), as well as varying both the constant (K2Sc) and the stoichiometric coefficient (nSc). In the case of ssDNA, nSc is given per one base; for HSA, nSc = 1.
(§3) Single-stranded form of DNA (single-stranded DNA; ssDNA) was obtained according to the method described in [74]. The concentrations of DNA and the dyes were controlled spectrophotometrically. Molar extinction coefficient of dsDNA (ε, L⋅mol^−1⋅cm^−1) was taken to be 13,200 L mol^−1 cm^−1 (per base pair); for ssDNA, ε = 9045 L mol^−1 cm^−1 (per one base) was used. For MCD 1 and 2 in an aqueous buffer solution, we used extinction coefficients ε = 40,000 and 68,000 L mol^−1 cm^−1, respectively, which were taken from. For MCD 3 and 4, the molar extinction coefficients in ethanol solution were 69,200 and 49,000 L mol^−1 cm^−1 (taken from). […] Spectral fluorescent characteristics of MCD in complexes with biomacromolecules were studied by titration of dye solutions (see Supplementary Materials). The thermal dissociation (“melting”) of dsDNA in the presence of MCD was studied spectrophotometrically (λabs = 260 nm), the sample was heated (t° = 30–95 °C) using Peltier cells, and the temperature was controlled using a thermocouple. Melting points tm, corresponding to 50% hyperchromia of DNA samples were obtained.
(§4) Absorption spectra were recorded on an SF-2000 spectrophotometer (Experimental-Construction Company “Spectrum”, St. Petersburg, Russia); fluorescence and fluorescence excitation spectra were recorded on a Fluorat-02-Panorama spectrofluorimeter (Group of Companies “Lumex”, St. Petersburg, Russia). The fluorescence and fluorescence excitation spectra were corrected for the spectral characteristics of the instrument (excitation channel signal) and sample transmission. Changes in the intrinsic fluorescence of HSA upon binding of MCD (in the presence of the dyes) were recorded in the synchronous fluorescence scanning (SFS) mode. In SFS mode, when registering spectra, a fixed difference Δλ= λfl − λex is maintained for the channels of excitation and registration. Synchronous scanning spectra were obtained at Δλ = 15 nm (fluorescence of tyrosine residues in the HSA molecule) and Δλ = 60 nm (fluorescence of tryptophan). The spectra were measured in 1 cm quartz semi-micro cells (Bio-Rad, Hercules, CA, USA).
(§5) The equilibrium constants of MCD complexation with biomolecules (Ka, L mol^−1) were obtained from fluorescence spectra using the Benesi–Hildebrand [59], Hill, and Scatchard equations [61] (see Supplementary Materials, Equations (S9)–(S13)). […]

ssDNA = experiment: Spectral fluorescent titration of the dyes with ssDNA in PBS; type: binding, chick
From the text: as §1, §2, §3, §4, §5

[1] = target: T1, human serum albumin (HSA) (Homo sapiens, UniProt P02768); experiment: Spectral fluorescent titration of the dyes with HSA in PBS; type: binding
T1 construct: purchased Sigma-Aldrich
From the text: as §1, §2
Distilled water, 0.01 M aqueous phosphate buffer saline solution (PBS; pH 7.4, containing 0.137 M NaCl and 0.0027 M KCl), ethanol, benzyl alcohol, isopentyl alcohol, acetonitrile, DMSO, 1,4-dioxane, chloroform, DMSO, acetone, methyl ethyl ketone, ethyl acetate (all analytical grade). Commercial chick erythrocyte DNA (Reanal, Budapest, Hungary) and human serum albumin (HSA, Sigma-Aldrich, St. Louis, MO, USA) were used.
as §4
as §5, with “(S9)–(S13)). Limits of detection (LOD) and quantification (LOQ) of biomolecules were determined from concentration plots of MCD fluorescence intensities (see Supplementary Materials, Equations (S14) and (S15)).” for “(S9)–(S13)).”
1. Spectral‐Fluorescent Titration
In experiments on spectral‐fluorescence titration, MCD 1–4 were dosed from their concentrated st ock solutions in EtOH. Microvolumes (~0.5–5 μL) were dosed into the measuring cell (dilution 1:500 – 1:1000). […]
Measurements of the intrinsic fluorescence of HSA in the presence of MCD were carried out at a constant concentration of HSA (cHSA ~ 2.0 × 10–5 mol L–1) by titration with increasing concentrations of dyes. After stirring, the absorption and fluorescence spectra of the dyes were recorded several times. […]

T1 sequence (P02768 25-609): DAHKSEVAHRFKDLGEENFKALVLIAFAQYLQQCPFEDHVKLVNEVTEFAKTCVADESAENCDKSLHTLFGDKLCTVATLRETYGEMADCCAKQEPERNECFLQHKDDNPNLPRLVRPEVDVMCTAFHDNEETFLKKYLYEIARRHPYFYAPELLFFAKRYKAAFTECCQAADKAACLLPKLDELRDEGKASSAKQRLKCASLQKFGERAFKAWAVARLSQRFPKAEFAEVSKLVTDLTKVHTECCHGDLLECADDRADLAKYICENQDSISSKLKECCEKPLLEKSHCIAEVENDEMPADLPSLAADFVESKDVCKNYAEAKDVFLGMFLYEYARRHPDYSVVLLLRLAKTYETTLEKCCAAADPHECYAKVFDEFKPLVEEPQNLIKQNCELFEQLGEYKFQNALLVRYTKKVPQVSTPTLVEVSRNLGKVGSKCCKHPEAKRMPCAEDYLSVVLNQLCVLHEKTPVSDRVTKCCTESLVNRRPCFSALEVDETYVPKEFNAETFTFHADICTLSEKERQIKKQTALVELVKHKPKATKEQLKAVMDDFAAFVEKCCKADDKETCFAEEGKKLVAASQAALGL

**Q.** For CC[N+](CC)(CC)CCC[n+]1ccc(/C=C2\Sc3ccccc3N2C)c2ccc(O)cc21 [MCD 1], which “Ifl/Ifl0, relative increase in the fluorescence intensity” value (dsDNA; cdsDNA = 1 × 10^−4 mol L^−1) is on record?
**A.** about 425 times

**Q.** What about the “φfl^b, fluorescence quantum yield of the dye in the presence of biopolymer” value (from here on “φfl^b, fluorescence quantum yield”) (dsDNA; cdsDNA~5 × 10^−5 mol L^−1) of the same molecule?
**A.** 13 ± 1.5%

**Q.** What about the LOD (dsDNA; detection of dsDNA) of the same molecule?
**A.** 7.2 nM

**Q.** What about the LOD (dsDNA; dsDNA) of the same molecule?
**A.** about 10^−8 mol L^−1

**Q.** And the LOQ (dsDNA; dsDNA)?
**A.** about 10^−8 mol L^−1

**Q.** And the “nHill, Hill coefficient” value (dsDNA; dsDNA)?
**A.** 1.04

**Q.** What about the “nSc, stoichiometric coefficient (Scatchard)” value (“nSc … (Scatchard)” below) (dsDNA; dsDNA) of the same molecule?
**A.** 2

**Q.** And the KeffHill, effective complexation constant (Hill) (dsDNA; dsDNA, PBS buffer)?
**A.** 53400 L/mol

**Q.** What about the KeffBH, effective complexation constant (Benesi–Hildebrand) (dsDNA; dsDNA, PBS buffer, fluorescent titration) of the same molecule?
**A.** 54000 L/mol

**Q.** And the “αb, proportion of bound dye” value (dsDNA; dsDNA)?
**A.** ~80%

**Q.** And the “αb, proportion of bound dye” value (dsDNA; dsDNA, listed as 1)?
**A.** 80%

**Q.** And the K2Sc, complexation constant (Scatchard) (dsDNA; dsDNA, constant and nSc both varied)?
**A.** 169000 L/mol

**Q.** What about the “Fmax/F0, fluorescence growth at 100% binding” value (“Fmax/F0 … at 100% binding” for short) (dsDNA; dsDNA, from the Benesi–Hildebrand dependence) of the same molecule?
**A.** 460

**Q.** What about the K1Sc, complexation constant (Scatchard) (dsDNA; dsDNA, nSc = const = 10 b.p.) of the same molecule?
**A.** 793000 L/mol

**Q.** What about the “hypochromia of the absorption band” value (dsDNA; high concentrations of dsDNA) of the same molecule?
**A.** 8%

**Q.** What about the LOQ (dsDNA; quantification of dsDNA) of the same molecule?
**A.** 21 nM

**Q.** What about the “Ifl/Ifl0, relative increase in the fluorescence intensity” value (ssDNA; cssDNA = 5 × 10^−5 mol L^−1) of the same molecule?
**A.** ~ 40

**Q.** And the “φfl^b, fluorescence quantum yield” value (ssDNA; cssDNA~5 × 10^−5 mol L^−1)?
**A.** 12 ± 1.5%

**Q.** And the “decrease of the observed extinction coefficients” value (ssDNA; cssDNA~8 × 10^−5 mol L^−1)?
**A.** 40%

**Q.** And the LOD (ssDNA; detection of ssDNA)?
**A.** 40 nM

**Q.** What about the LOQ (ssDNA; quantification of ssDNA) of the same molecule?
**A.** 120 nM

**Q.** What about the K1Sc, complexation constant (Scatchard) (ssDNA; ssDNA) of the same molecule?
**A.** 228000 L/mol

**Q.** What about the “nHill, Hill coefficient” value (ssDNA; ssDNA) of the same molecule?
**A.** 0.7

**Q.** And the KeffHill, effective complexation constant (Hill) (ssDNA; ssDNA, PBS buffer)?
**A.** 2830 L/mol

**Q.** What about the KeffBH, effective complexation constant (Benesi–Hildebrand) (ssDNA; ssDNA, PBS buffer, fluorescent titration) of the same molecule?
**A.** 24200 L/mol

**Q.** And the “αb, proportion of bound dye” value (ssDNA; ssDNA, cbiomol = 5 × 10^−5 mol L^−1)?
**A.** 60%

**Q.** What about the K2Sc, complexation constant (Scatchard) (ssDNA; ssDNA, constant and nSc both varied) of the same molecule?
**A.** 159000 L/mol

**Q.** What about the “Fmax/F0 … at 100% binding” value (ssDNA; ssDNA, from the Benesi–Hildebrand dependence) of the same molecule?
**A.** 60.9

**Q.** What about the “nSc … (Scatchard)” value (ssDNA; ssDNA, per one base) of the same molecule?
**A.** 2

**Q.** What about the “LR, linear portion of fluorescence intensity vs. concentration plot” value ([1]; HSA) of the same molecule?
**A.** 0–0.6 ^3 µmol L^−1

**Q.** What about the “nHill, Hill coefficient” value ([1]; HSA) of the same molecule?
**A.** 0.89

**Q.** And the “nSc … (Scatchard)” value ([1]; HSA (nSc = 1 taken for HSA))?
**A.** 1

**Q.** What about the “lower sensitivity to HSA than to dsDNA” value ([1]; HSA versus dsDNA) of the same molecule?
**A.** about 37 times

**Q.** What about the KeffHill, effective complexation constant (Hill) ([1]; HSA, PBS buffer) of the same molecule?
**A.** 3350 L/mol

**Q.** What about the “εf/εb, relative change in molar extinction coefficient on complexation” value ([1]; HSA, PBS buffer) of the same molecule?
**A.** 1.59

**Q.** What about the KeffBH, effective complexation constant (Benesi–Hildebrand) ([1]; HSA, PBS buffer, fluorescent titration) of the same molecule?
**A.** 8000 L/mol

**Q.** And the “αb, proportion of bound dye” value ([1]; HSA, cbiomol = 5 × 10^−5 mol L^−1)?
**A.** 27%

**Q.** And the “Fmax/F0 … at 100% binding” value ([1]; HSA, from the Benesi–Hildebrand dependence)?
**A.** 65

**Q.** And the K2Sc, complexation constant (Scatchard) ([1]; HSA, nSc = 1)?
**A.** 7300 L/mol

**Q.** And the “hypochromia of the absorption band” value ([1]; cHSA = 2.5 × 10^−7 mol L^−1)?
**A.** ~ 25%

**Q.** And the “φfl^b, fluorescence quantum yield” value ([1]; cHSA~5 × 10^−5 mol L^−1)?
**A.** ~1 ± 0.1%

**Q.** And the “hypochromia of the absorption band” value ([1]; cHSA~9 × 10^−6 mol L^−1, crel(HSA) = 3)?
**A.** ~ 36%

**Q.** And the LOD ([1]; detection of HSA)?
**A.** 270 nM

**Q.** And the LOQ ([1]; quantification of HSA)?
**A.** 890 nM
